Test results reported in patent publication US10954269B2, “Anti-inflammatory tripeptides” (Dr. August Wolff Gmbh & Co. KG Arzneimittel, priority 2013, dated 2021).

Tests used:
Details in all cases: substance 10^−9M
primary murine T-cells = experiment: Cytokine secretion on protein level in activated primary murine T-cells (13-plex FACS / Luminex, supernatant); assay type: cell-based, C57BL/6 mice
Outline: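 T-cells from secondary lymphatic organs of naïve C57BL/6 mice, stimulated with PMA/Ionomycin or IFN-γ; supernatant cytokines measured by 13-plex FACS 48 h and 72 h after stimulation. In another run, PMA/Ionomycin-stimulated cells received compounds at 10^−7, 10^−9 and 10^−11 M, with IFN-γ, IL-17 and IL-10 measured by Luminex.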

[1] = tested on: human keratinocyte cell line (HaCaT); experiment: Cytokine secretion on protein level in activated human keratinocyte cell line HaCaT (13-plex FACS / Luminex, supernatant); assay type: cell-based
Outline: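 Cytokine protein in supernatant is read by multiplex FACS or Luminex. Tripeptide-treated HaCaT cells or blood-derived human T-cells are stimulated beforehand with PMA/Ionomycin or IFN-γ. The most relevant analytes are IL-1, IL-2, IL-6, IL-12p70, IL-17, IFN-γ and TNF-α, sampled 48 h and 72 h after stimulation.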

primary human T-cells = experiment: Cytokine secretion on protein level in activated primary human T-cells (13-plex FACS / Luminex, supernatant); assay type: cell-based
Outline: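 First, T-cells are isolated from healthy donors' blood. Next, they and HaCaT keratinocytes are activated for 48 h with PMA/Ionomycin or IFN-γ in the presence of tripeptides. Finally, secreted cytokines are quantified in supernatants by 13-plex FACS at 48 and 72 h.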

[2] = primary murine T-cells stimulated with IFN-γ
[3] = primary murine T-cells stimulated with PBS
[4] = primary murine T-cells stimulated with PMA/Ionomycin
[5] = HaCaT stimulated with PMA/Ionomycin
[6] = primary human T-cells stimulated with IFN-γ
[7] = primary human T-cells stimulated with PBS
[8] = primary human T-cells stimulated with PMA/Ionomycin

H-(L)-Lys-(L)-Pro-Alb-NH2 [Example 10]
IL-1 cytokine concentration (primary murine T-cells; [2]): 77.81 pg/mL | IL-2 cytokine concentration (primary murine T-cells; [2]): 93.19 pg/mL | IL-4 cytokine concentration (primary murine T-cells; [2]): 81.11 pg/mL | IL-5 cytokine concentration (primary murine T-cells; [2]): 238.38 pg/mL | IL-6 cytokine concentration (primary murine T-cells; [2]): 139.83 pg/mL | IL-10 cytokine concentration (primary murine T-cells; [2]): 2024.06 pg/mL | IL-13 cytokine concentration (primary murine T-cells; [2]): 0 pg/mL | IL-17 cytokine concentration (primary murine T-cells; [2]): 0 pg/mL | IL-21 cytokine concentration (primary murine T-cells; [2]): 0 pg/mL | IL-22 cytokine concentration (primary murine T-cells; [2]): 57.35 pg/mL | IL-27 cytokine concentration (primary murine T-cells; [2]): 1.29 pg/mL | TNF-α cytokine concentration (primary murine T-cells; [2]): 32.42 pg/mL | IFN-γ cytokine concentration (primary murine T-cells; [3]): 0 pg/mL | IL-1 cytokine concentration (primary murine T-cells; [3]): 66.84 pg/mL | IL-2 cytokine concentration (primary murine T-cells; [3]): 132.67 pg/mL | IL-4 cytokine concentration (primary murine T-cells; [3]): 65.63 pg/mL | IL-5 cytokine concentration (primary murine T-cells; [3]): 229.8 pg/mL | IL-6 cytokine concentration (primary murine T-cells; [3]): 177.95 pg/mL | IL-10 cytokine concentration (primary murine T-cells; [3]): 923.65 pg/mL | IL-13 cytokine concentration (primary murine T-cells; [3]): 0 pg/mL | IL-17 cytokine concentration (primary murine T-cells; [3]): 0 pg/mL | IL-21 cytokine concentration (primary murine T-cells; [3]): 0 pg/mL | IL-22 cytokine concentration (primary murine T-cells; [3]): 71.47 pg/mL | IL-27 cytokine concentration (primary murine T-cells; [3]): 0 pg/mL | TNF-α cytokine concentration (primary murine T-cells; [3]): 77.08 pg/mL | IFN-γ cytokine concentration (primary murine T-cells; [4]): 2377.98 pg/mL | IL-1 cytokine concentration (primary murine T-cells; [4]): 173.61 pg/mL | IL-2 cytokine concentration (primary murine T-cells; [4]): 179.75 pg/mL | IL-4 cytokine concentration (primary murine T-cells; [4]): 56.84 pg/mL | IL-5 cytokine concentration (primary murine T-cells; [4]): 267.52 pg/mL | IL-6 cytokine concentration (primary murine T-cells; [4]): 164.16 pg/mL | IL-10 cytokine concentration (primary murine T-cells; [4]): 1182.68 pg/mL | IL-13 cytokine concentration (primary murine T-cells; [4]): 0 pg/mL | IL-17 cytokine concentration (primary murine T-cells; [4]): 86.12 pg/mL | IL-21 cytokine concentration (primary murine T-cells; [4]): 0 pg/mL | IL-22 cytokine concentration (primary murine T-cells; [4]): 44.47 pg/mL | IL-27 cytokine concentration (primary murine T-cells; [4]): 8.48 pg/mL | TNF-α cytokine concentration (primary murine T-cells; [4]): 33.37 pg/mL | IL-1 cytokine concentration ([1]; HaCaT stimulated with IFN-γ): 0 pg/mL | IL-2 cytokine concentration ([1]; HaCaT stimulated with IFN-γ): 0 pg/mL | IL-4 cytokine concentration ([1]; HaCaT stimulated with IFN-γ): 183.12 pg/mL | IL-5 cytokine concentration ([1]; HaCaT stimulated with IFN-γ): 88.64 pg/mL | IL-6 cytokine concentration ([1]; HaCaT stimulated with IFN-γ): 346.73 pg/mL | IL-9 cytokine concentration ([1]; HaCaT stimulated with IFN-γ): 0 pg/mL | IL-10 cytokine concentration ([1]; HaCaT stimulated with IFN-γ): 0 pg/mL | IL-12p70 cytokine concentration ([1]; HaCaT stimulated with IFN-γ): 0 pg/mL | IL-13 cytokine concentration ([1]; HaCaT stimulated with IFN-γ): 1904.09 pg/mL | IL-17 cytokine concentration ([1]; HaCaT stimulated with IFN-γ): 189.1 pg/mL | IL-22 cytokine concentration ([1]; HaCaT stimulated with IFN-γ): 0 pg/mL | TNF-α cytokine concentration ([1]; HaCaT stimulated with IFN-γ): 0 pg/mL | IFN-γ cytokine concentration ([1]; HaCaT stimulated with PBS): 469.17 pg/mL | IL-1 cytokine concentration ([1]; HaCaT stimulated with PBS): 170.16 pg/mL | IL-2 cytokine concentration ([1]; HaCaT stimulated with PBS): 0 pg/mL | IL-4 cytokine concentration ([1]; HaCaT stimulated with PBS): 218.04 pg/mL | IL-5 cytokine concentration ([1]; HaCaT stimulated with PBS): 0 pg/mL | IL-6 cytokine concentration ([1]; HaCaT stimulated with PBS): 125.38 pg/mL | IL-9 cytokine concentration ([1]; HaCaT stimulated with PBS): 5.28 pg/mL | IL-10 cytokine concentration ([1]; HaCaT stimulated with PBS): 0 pg/mL | IL-12p70 cytokine concentration ([1]; HaCaT stimulated with PBS): 0 pg/mL | IL-13 cytokine concentration ([1]; HaCaT stimulated with PBS): 1864.02 pg/mL | IL-17 cytokine concentration ([1]; HaCaT stimulated with PBS): 230.84 pg/mL | IL-22 cytokine concentration ([1]; HaCaT stimulated with PBS): 0 pg/mL | TNF-α cytokine concentration ([1]; HaCaT stimulated with PBS): 0 pg/mL | IFN-γ cytokine concentration [1, 5]: 327.78 pg/mL | IL-1 cytokine concentration [1, 5]: 251.13 pg/mL | IL-2 cytokine concentration [1, 5]: 189.17 pg/mL | IL-4 cytokine concentration [1, 5]: 0 pg/mL | IL-5 cytokine concentration [1, 5]: 0 pg/mL | IL-6 cytokine concentration [1, 5]: 315.82 pg/mL | IL-9 cytokine concentration [1, 5]: 14.67 pg/mL | IL-10 cytokine concentration [1, 5]: 34.84 pg/mL | IL-12p70 cytokine concentration [1, 5]: 0 pg/mL | IL-13 cytokine concentration [1, 5]: 0 pg/mL | IL-17 cytokine concentration [1, 5]: 45.41 pg/mL | IL-22 cytokine concentration [1, 5]: 0 pg/mL | TNF-α cytokine concentration [1, 5]: 53.51 pg/mL | IL-1 cytokine concentration (primary human T-cells; [6]): 139.49 pg/mL | IL-2 cytokine concentration (primary human T-cells; [6]): 231.83 pg/mL | IL-4 cytokine concentration (primary human T-cells; [6]): 160.97 pg/mL | IL-5 cytokine concentration (primary human T-cells; [6]): 0 pg/mL | IL-6 cytokine concentration (primary human T-cells; [6]): 105.21 pg/mL | IL-9 cytokine concentration (primary human T-cells; [6]): 0 pg/mL | IL-10 cytokine concentration (primary human T-cells; [6]): 0 pg/mL | IL-12p70 cytokine concentration (primary human T-cells; [6]): 0 pg/mL | IL-13 cytokine concentration (primary human T-cells; [6]): 162.81 pg/mL | IL-17 cytokine concentration (primary human T-cells; [6]): 250.1 pg/mL | IL-22 cytokine concentration (primary human T-cells; [6]): 0 pg/mL | TNF-α cytokine concentration (primary human T-cells; [6]): 0 pg/mL | IL-1 cytokine concentration (primary human T-cells; [7]): 0 pg/mL | IL-2 cytokine concentration (primary human T-cells; [7]): 0 pg/mL | IL-4 cytokine concentration (primary human T-cells; [7]): 0 pg/mL | IL-5 cytokine concentration (primary human T-cells; [7]): 0 pg/mL | IL-6 cytokine concentration (primary human T-cells; [7]): 216.7 pg/mL | IL-9 cytokine concentration (primary human T-cells; [7]): 23.18 pg/mL | IL-10 cytokine concentration (primary human T-cells; [7]): 48.86 pg/mL | IL-12p70 cytokine concentration (primary human T-cells; [7]): 0 pg/mL | IL-13 cytokine concentration (primary human T-cells; [7]): 0 pg/mL | IL-17 cytokine concentration (primary human T-cells; [7]): 0 pg/mL | IL-22 cytokine concentration (primary human T-cells; [7]): 0 pg/mL | INF-α cytokine concentration (primary human T-cells; [7]): 0 pg/mL | TNF-α cytokine concentration (primary human T-cells; [7]): 21.65 pg/mL | IL-1 cytokine concentration (primary human T-cells; [8]): 878.53 pg/mL | IL-2 cytokine concentration (primary human T-cells; [8]): 5107.74 pg/mL | IL-4 cytokine concentration (primary human T-cells; [8]): 179.62 pg/mL | IL-5 cytokine concentration (primary human T-cells; [8]): 416.25 pg/mL | IL-6 cytokine concentration (primary human T-cells; [8]): 1255.58 pg/mL | IL-9 cytokine concentration (primary human T-cells; [8]): 461.98 pg/mL | IL-10 cytokine concentration (primary human T-cells; [8]): 729.43 pg/mL | IL-12p70 cytokine concentration (primary human T-cells; [8]): 0 pg/mL | IL-13 cytokine concentration (primary human T-cells; [8]): 1183.46 pg/mL | IL-17 cytokine concentration (primary human T-cells; [8]): 2234.39 pg/mL | IL-22 cytokine concentration (primary human T-cells; [8]): 0 pg/mL | INF-α cytokine concentration (primary human T-cells; [8]): 11538.53 pg/mL | TNF-α cytokine concentration (primary human T-cells; [8]): 4132.03 pg/mL
